Source: patent US8425885B2, “Substituted 3-(phenoxymethyl) benzyl amines and personal care compositions” (Conopco, Inc., priority 2009, dated 2013)

Test system: Melanoderm tissue equivalent model MEL-300 (MatTek) containing melanocytes obtained from dark skin individuals
Assay: Melanoderm tissue equivalent melanin content (inhibition of melanogenesis)
Format: cell-based
Conditions: Melanocyte, 336 h, total melanin content vs DMSO vehicle, 5 μM in maintenance medium, 14 days
Procedure: Melanoderm tissue equivalent model MEL-300 (MatTek: Ashland, Mass.) containing melanocytes obtained from dark skin individuals were cultured as per supplier instructions. Components were added to the maintenance medium phase (no topical treatments) at a final concentration of 5 μM for 14 days at which time the experiment was terminated and the tissues assessed for melanin content. Medium and treatments were changed three times per week. DMSO was utilized as the vehicle control and all treatments were performed at least in duplicate.
For quantification of total melanin, each Melanoderm was placed into an individual Eppendorf tube (2 mL) into which 250 μL of Solvable™ tissue solubilizer (Packard Bioscience Co., Cat#6NE9100) was added. Each tube was vortexed and incubated at 60° C. for 18 hours. Each sample was then centrifuged (5-minutes at 13,000 RPMs) to remove any particulates. 100 or 200 μL of supernatant were transferred to a 96 well microtiter plate and the absorbance read at 490 nm. Total melanin content was calculated from a standard curve using synthetic melanin (Sigma Cat# M8631). Data was analyzed for significance using the t-test in Microsoft Excel to generate p-values (p-values less than 0.01 represent 99% confidence, p values of 0.05 represent 95% confidence both of which are statistically significant).

Compound	inhibition at 5 µM
CCN(CC)Cc1cccc(COc2ccccc2)c1 [5a, N-(3-(phenoxymethyl)benzyl)-N-ethylethanamine]	14.4%
CCN(CC)Cc1cccc(COc2ccccc2C)c1 [5b, N-(3-((o-tolyloxy)methyl)benzyl)-N-ethylethanamine]	27.1%
CCc1ccccc1OCc1cccc(CN(CC)CC)c1 [5c, N-(3-((2-ethylphenoxy)methyl)benzyl)-N-ethylethanamine]	30.7%
CCN(CC)Cc1cccc(COc2ccccc2OC)c1 [5d, N-(3-((2-methoxyphenoxy)methyl)benzyl)-N-ethylethanamine]	9.3%
COc1ccccc1OCc1cccc(CNC(C)C)c1 [5e, N-(3-((2-methoxyphenoxy)methyl)benzyl)propan-2-amine]	14.7%
CCN(C)Cc1cccc(COc2ccccc2OC)c1 [5f, N-(3-((2-methoxyphenoxy)methyl)benzyl)-N-methylethanamine]	20.8%
CCN(CC)Cc1cccc(COc2ccccc2C(C)C)c1 [5g, N-(3-((2-isopropylphenoxy)methyl)benzyl)-N-ethylethanamine]	29.9%
CCN(CC)Cc1cccc(COc2cccc3ccccc23)c1 [5h, N-(3-((naphthalen-1-yloxy)methyl)benzyl)-N-ethylethanamine]	33.5%
CN(C)Cc1cccc(COc2cccc3ccccc23)c1 [5i, N,N-dimethyl(3-((naphthalen-1-yloxy)methyl)phenyl)methanamine]	25.3%
CC(C)NCc1cccc(COc2cccc3ccccc23)c1 [5j, N-(3-((naphthalen-1-yloxy)methyl)benzyl)propan-2-amine]	26.5%
CCc1ccc(OCc2cccc(CN(C)C)c2)cc1 [5k]	-0.6%
CCc1ccccc1OCc1cccc(CN(C)C)c1 [5m, (3-((2-ethylphenoxy)methyl)phenyl)-N,N-dimethylmethanamine]	31.6%
CCc1ccccc1OCc1cccc(CNC)c1 [5q, (3-((2-ethylphenoxy)methyl)phenyl)-N-methylmethanamine]	42.3%
CCNCc1cccc(COc2ccccc2CC)c1 [5r, N-(3-((2-ethylphenoxy)methyl)benzyl)ethanamine]	33.9%
NCc1cccc(COc2cccc3ccccc23)c1 [5s, (3-((naphthalen-1-yloxy)methyl)phenyl)methanamine]	4%
CNCc1cccc(COc2cccc3ccccc23)c1 [5t, N-methyl(3-((naphthalen-1-yloxy)methyl)phenyl)methanamine]	27.1%
CCNCc1cccc(COc2cccc3ccccc23)c1 [5u, N-((3-((naphthalen-1-yloxy)methyl)phenyl)methyl)ethanamine]	42.5%
